Results taken from patent US11001569B2, “6-membered heteroaromatic substituted cyanoindoline derivatives as NIK inhibitors” (Janssen Pharmaceutica NV, priority 2016, dated 2021).
Like-named read-outs stand apart in the source and are kept apart here.

Key:
[1] = biological target: recombinant human NF-kappaB-inducing Kinase (NIK/MAP3K14) (Homo sapiens, UniProt Q99558); assay: Inhibition of auto-phosphorylation of recombinant human NIK/MAP3K14 activity (AlphaScreen); type: biochemical; details: 25 microM ATP, averaged over all measurements on all batches
[2] = tested on: KMS12-BM (NIK WT) multiple myeloma cells; assay: Antiproliferative activity on KMS12-BM multiple myeloma cells (CellTiter-Glo); type: cell-based, human; details: 96 hr treatment, averaged values, read-out: KMS-12 Proliferation inhibition (IC50 (nM))
How it was run: (§1)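 Cells plated at 15000 (JJN3) or 20000 (KMS12BM) per well and treated 96 h at 37° C, 5% CO2, final DMSO 0.3%, 9-point 1:3 dilutions. Viability by CellTiter-Glo luminescence; time-zero blank subtracted, growth expressed as percent of untreated control.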

[3] = tested on: JJN-3 (NIK translocated) multiple myeloma cells; assay: Antiproliferative activity on JJN-3 multiple myeloma cells (CellTiter-Glo); type: cell-based, human; details: JJN-3 (NIK translocated) cells, 96 hr treatment, averaged values, read-out: JJN-3 Proliferation inhibition (IC50 (nM))
How it was run: as §1

[4] = tested on: P-IKKα levels in L363 (NIK translocated multiple myeloma) cells; assay: Effect of compounds on P-IKKα levels in L363 cells (Mesoscale sandwich immuno-assay); type: cell-based, human; details: 2 hr treatment, averaged values, read-out: Inhibition of pIKKα_L-363 (IC50 (nM))
Experimental: Effect of Compounds on P-IKKα Levels in L363 (NIK Translocated Multiple Myeloma) Cells
All compounds tested were dissolved in DMSO and further dilutions were made in culture medium. Final DMSO concentration was 1% (v/v) in cell assays. The human L363 cells (ATCC) were cultured in RPMI 1640 medium supplemented with GlutaMax and 10% fetal calf serum (PAA). Cells were routinely maintained at densities of 0.2×10^6 cells per ml-1×10^6 cells per ml at 37° C. in a humidified 5% CO2 atmosphere. Cells were passaged twice a week splitting back to obtain the low density. Cells were seeded in 96 well plates (Nunc 167008) at 2×10^6 per ml media in a volume of 75 μl per well plus 25 μl 1 μg/ml recombinant human B-cell activating factor (BAFF/BLyS/TNFSF13B). Seeded cells were incubated at 37° C. in a humidified 5% CO2 atmosphere for 24 hr. Drugs and/or solvents were added (20 μl) to a final volume of 120 μl. Following 2 hr treatment plates were removed from the incubator and cell lysis was achieved by the addition of 30 μl 5× lysis buffer followed by shaking on a plate shaker at 4° C. for 10 min. At the end of this incubation lysed cells were centrifuged at 800×g for 20 min at 4° C. and the lysate was assessed for P-IKK levels by sandwich immuno-assay carried out in anti-rabbit antibody coated Mesoscale plates. Within an experiment, the results for each treatment were the mean of 2 replicate wells. For initial screening purposes, compounds were tested using an 8 point dilution curve (serial 1:3 dilutions). […] The blank incubation value was subtracted from all control and sample values. To determine the IC50 a sigmoidal curve was fitted to the plot of % inhibition of control P-IKKα levels versus Log10 compound concentration.

recombinant human NF-kappaB-inducing Kinase (NIK/MAP3K14), sequence (Q99558 whole entry): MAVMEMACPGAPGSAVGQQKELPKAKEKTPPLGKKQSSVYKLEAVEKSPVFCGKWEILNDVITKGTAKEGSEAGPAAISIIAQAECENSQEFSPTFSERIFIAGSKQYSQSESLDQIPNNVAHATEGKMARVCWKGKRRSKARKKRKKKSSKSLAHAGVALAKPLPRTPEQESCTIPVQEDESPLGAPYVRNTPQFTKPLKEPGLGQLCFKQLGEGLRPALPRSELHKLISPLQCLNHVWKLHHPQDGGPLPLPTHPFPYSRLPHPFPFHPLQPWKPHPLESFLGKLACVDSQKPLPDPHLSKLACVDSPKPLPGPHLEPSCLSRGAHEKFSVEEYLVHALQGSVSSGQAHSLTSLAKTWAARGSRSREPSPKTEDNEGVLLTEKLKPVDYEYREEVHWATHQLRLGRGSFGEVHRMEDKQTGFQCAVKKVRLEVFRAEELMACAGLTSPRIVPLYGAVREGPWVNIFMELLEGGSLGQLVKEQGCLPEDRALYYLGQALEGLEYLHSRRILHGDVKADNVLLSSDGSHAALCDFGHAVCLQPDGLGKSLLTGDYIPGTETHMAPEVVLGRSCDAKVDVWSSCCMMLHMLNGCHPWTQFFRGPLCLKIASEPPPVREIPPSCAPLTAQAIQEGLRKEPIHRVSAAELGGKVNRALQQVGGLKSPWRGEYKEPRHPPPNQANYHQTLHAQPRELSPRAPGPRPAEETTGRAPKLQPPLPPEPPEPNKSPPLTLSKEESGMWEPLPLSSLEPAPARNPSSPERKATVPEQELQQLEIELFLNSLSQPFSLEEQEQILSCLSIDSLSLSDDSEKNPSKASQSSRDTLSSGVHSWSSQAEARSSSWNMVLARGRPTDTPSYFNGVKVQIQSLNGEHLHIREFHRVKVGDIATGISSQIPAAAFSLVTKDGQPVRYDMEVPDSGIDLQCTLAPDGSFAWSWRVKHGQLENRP

Compound	IC50 [1] [nM]	melting point [°C]	IC50 ([2]; Homo sapiens, KMS-12-BM, 96 h) [nM]	IC50 ([3]; Homo sapiens, JJN-3, 96 h) [nM]	IC50 ([4]; Homo sapiens, L-363, 2 h) [nM]	IC50 [2] [nM]	IC50 [3] [nM]	IC50 [4] [nM]
Cc1cc(Nc2nccc(-c3cc(C#N)c4c(c3)[C@@](C)(CO)CN4)n2)c(=O)n(CC(C)N2CCOCC2)c1 (mixture of isomers) [Compound 18i]	0.9	208	> 10000	49	4.9			
Cc1cc(Nc2nccc(-c3cc(C#N)c4c(c3)[C@@](C)(CO)CN4)n2)c(=O)n(CC(C)N2CCOCC2)c1 (single isomer, unassigned) [Compound 22i]	3.4	138	9120	33	2.1			
Cc1cc(Nc2nccc(-c3cc(C#N)c4c(c3)[C@@](C)(CO)CN4)n2)c(=O)n(CC(C)N2CCOCC2)c1 (single isomer, unassigned) [Compound 23i]	2.3	136				> 10000	30	2.9
CN1CCCC(COc2ncc(Cl)cc2Nc2nccc(-c3cc(C#N)c4c(c3)[C@@](C)(CO)CN4)n2)C1 (single isomer, unassigned) [Compound 55]	3.8	204				1350	69	67.6
CN1CCCC(COc2ncc(Cl)cc2Nc2nccc(-c3cc(C#N)c4c(c3)[C@@](C)(CO)CN4)n2)C1 (single isomer, unassigned) [Compound 56]	3.5	126				~148	7	~7240
Cc1cnc(OCC2COCCN2C)c(Nc2nccc(-c3cc(C#N)c4c(c3)[C@@](C)(CO)CN4)n2)c1 (single isomer, unassigned) [Compound 148]	8.5	154	> 10000		13.8		135	
Cc1cnc(OCC2COCCN2C)c(Nc2nccc(-c3cc(C#N)c4c(c3)[C@@](C)(CO)CN4)n2)c1 (single isomer, unassigned) [Compound 149]	8.9	146				> 10000	29	7.8
Cc1cnc(OCC2CN(C)CCO2)c(Nc2nccc(-c3cc(C#N)c4c(c3)[C@@](C)(CO)CN4)n2)c1 (single isomer, unassigned) [Compound 152]	14.1	140						85.1
CC1(C)CNc2c(C#N)cc(-c3ccnc(Nc4cc(F)cn(CCN5CC(F)C5)c4=O)n3)cc21 [Compound 28i]	7.6	235			21.4			
Cc1cc(Nc2ncnc(-c3cc(C#N)c4c(c3)[C@@](C)(CO)CN4)n2)c(=O)n(C)c1 [Compound 30i]	4.6	276			14.5			
COCCCc1ccc(Nc2nccc(-c3cc(C#N)c4c(c3)[C@@](C)(CO)CN4)n2)c(OC)n1 [Compound 58]	6.9		> 10000	200	~17			
COCCOc1nc(P(C)(C)=O)ccc1Nc1nccc(-c2cc(C#N)c3c(c2)[C@@](C)(CO)CN3)n1 [Compound 60]	7.2		> 10000	708	70.8			
COCCOc1ncc(C2CC2)cc1Nc1nccc(-c2cc(C#N)c3c(c2)[C@@](C)(CO)CN3)n1 [Compound 67]	12.3		> 10000	204	186			
Cc1cnc(CCC2CC2)c(Nc2nccc(-c3cc(C#N)c4c(c3)[C@@](C)(CO)CN4)n2)c1 [Compound 68]	3.9		5130	98	~20			
CC(C)Oc1ncc(C#N)cc1Nc1nccc(-c2cc(C#N)c3c(c2)[C@@](C)(CO)CN3)n1 [Compound 75]	9.8		> 10000	> 10000	18.2			
CC(C)(CO)Oc1ncc(C#N)cc1Nc1nccc(-c2cc(C#N)c3c(c2)[C@@](C)(CO)CN3)n1 [Compound 78]	4.7		> 10000	589	28.2			
Cc1cnc(CCC(=O)N(C)C)c(Nc2nccc(-c3cc(C#N)c4c(c3)[C@@](C)(CO)CN4)n2)c1 [Compound 80]	3.7		> 10000	525	38.9			

Compound	IC50 [1] [nM]	melting point [°C]	IC50 ([2]; Homo sapiens, KMS-12-BM, 96 h) [nM]	IC50 ([3]; Homo sapiens, JJN-3, 96 h) [nM]	IC50 ([4]; Homo sapiens, L-363, 2 h) [nM]	IC50 [2] [nM]	IC50 [3] [nM]	IC50 [4] [nM]
Cc1cnc(/C=C/C(=O)N(C)C)c(Nc2nccc(-c3cc(C#N)c4c(c3)[C@@](C)(CO)CN4)n2)c1 [Compound 84]	5.6		> 10000	4680	11.8			
C[C@]1(CO)CNc2c(C#N)cc(-c3ccnc(Nc4cc(C#N)cnc4OC4CC4)n3)cc21 [Compound 85]	2.5		> 10000	372	3			
CNC(=O)c1cnc(CCC2CC2)c(Nc2nccc(-c3cc(C#N)c4c(c3)[C@@](C)(CO)CN4)n2)c1 [Compound 87]	3.8		> 10000	427	27.5			
Cc1nc(P(C)(C)=O)c(Cl)cc1Nc1nccc(-c2cc(C#N)c3c(c2)[C@@](C)(CO)CN3)n1 [Compound 90]	1.9		> 10000	5890	32.4			
Cc1cc(Nc2nccc(-c3cc(C#N)c4c(c3)[C@@](C)(CO)CN4)n2)c(CCC2CC2)nc1P(C)(C)=O [Compound 96]	2.2		> 10000	65	1.1			
COc1ncccc1Nc1nccc(-c2cc(C#N)c3c(c2)C(C)(C)CN3)n1 [Compound 97]	9.8		> 10000	1820	42.7			
COCCNc1nc(OC)c(Nc2nccc(-c3cc(C#N)c4c(c3)C(C)(C)CN4)n2)cc1Cl [Compound 98]	50.1		> 10000	832	45.7			
COc1nc(N(C)C)c(Cl)cc1Nc1nccc(-c2cc(C#N)c3c(c2)C(C)(C)CN3)n1 [Compound 99]	123		> 10000	708	275			
COc1nc(C2CCOCC2)ncc1Nc1nccc(-c2cc(C#N)c3c(c2)[C@@](C)(CO)CN3)n1 [Compound 140]	4.8		> 10000	427	12			
COCCOc1nc(C2CCOCC2)ncc1Nc1nccc(-c2cc(C#N)c3c(c2)[C@@](C)(CO)CN3)n1 [Compound 141]	18.6		4790	741	355			
Cc1cc(Nc2ncc(F)c(-c3cc(C#N)c4c(c3)[C@@](C)(CO)CN4)n2)c(C)cn1 [Compound 158]	1.6		> 10000	49	2.3			
COc1nc(CC(C)C)c(Nc2nccc(-c3cc(C#N)c4c(c3)[C@@](C)(CO)CN4)n2)cc1C [Compound 161]	28.2		> 10000	417	46.8			
CNC(=O)c1cc(Nc2nccc(-c3cc(C#N)c4c(c3)[C@@](C)(CO)CN4)n2)c(C)cn1 [Compound 165]	1.3		> 10000	117	6.2			
Cc1ncc(C(=O)N2CCN(C)CC2)cc1Nc1nccc(-c2cc(C#N)c3c(c2)[C@@](C)(CO)CN3)n1 [Compound 166]	25.7	150			229			
Cc1cc(Nc2nccc(-c3cc(C#N)c4c(c3)[C@@](C)(CO)CN4)n2)c(C)nc1OC1CCN(C)CC1 [Compound 172]	4.1		~2190	26	3.9			
Cc1cc(Nc2nccc(-c3cc(C#N)c4c(c3)[C@@](C)(CO)CN4)n2)c(C)nc1OC1CCOCC1 [Compound 174]	6.5	199			4			
CC1(C)CNc2c(C#N)cc(-c3ccnc(Nc4cc(Cl)cnc4C(=O)N4CCC(O)C4)n3)cc21 (centres unmarked) [Compound 180]	339	143 to 145			617			
